Source: patent US8748481B2, “Method for treating gastrointestinal disorder” (Sucampo AG, priority 2004, dated 2014)

Legend:
Assay type in all cases: in vivo, human
[1] = test system: subjects with occasional constipation; experiment: Severity of constipation, abdominal bloating and abdominal discomfort during 6 and 12 months treatment (Example 1); conditions: 48 μg/day, 6 months and 12 months treatment
Description: Multi-center, open-label study was performed to evaluate the safety of 48 μg of Compound A (13,14-dihydro-15-keto-16,16-difluoro-PGE1) (24 μg of Compound A b.i.d) when administered daily for 24 weeks (6 months) or 48 weeks (12 months) to subjects with occasional constipation. […] After 14-day drug-free washout period, they received 48 μg of Compound A (24 μg of Compound A b.i.d) orally for 48 weeks.
Each parameter (Severity of Constipation, Abdominal bloating or Abdominal discomfort) was evaluated on the scale of: 0 (absent), 1 (mild), 2 (moderate), 3 (severe) and 4 (very severe) in the patients during 6 months (n=246) or 12 months (n=304) treatments.

[2] = test system: patients with irritable bowel syndrome (IBS); experiment: 48-week treatment of IBS patients: abdominal discomfort, abdominal bloating, severity of constipation (Example 3); parameters: key to Abdominal discomfort, Change from Baseline, Median / Abdominal bloating, Change from Baseline, Median: change on 0 (absent) to 4 (very severe) scale; key to Severity of Constipation, Change from Baseline, Median: change on 0 (very loose) to 4 (very hard) scale; conditions: for Abdominal bloating, Mean ± SD / Abdominal bloating, Median / Abdominal discomfort, Mean ± SD / Abdominal discomfort, Median / Severity of Constipation, Mean ± SD / Severity of Constipation, Median: scale 0-4
Description: Patients with irritable bowel syndrome (IBS) were treated with 48 μg of Compound A (24 μg of Compound A b.i.d) for 48 weeks.
In this study, we evaluated the following parameters. • 1) Abdominal discomfort • 2) Abdominal bloating • 3) Severity of Constipation
Each of Abdominal discomfort and Abdominal bloating was evaluated on a scale of: 0 (absent), 1 (mild), 2 (moderate), 3 (severe) and 4 (very severe) in the patients. Severity of Constipation was evaluated on a scale of: 0 (very loose), 1: (loose), 2: (normal), 3 (hard), 4 (very hard) in the patients.

[3] = test system: different aged patients with occasional constipation; experiment: Weekly number of spontaneous bowel movements by age (Example 5); conditions: 48 μg/day, 4 weeks; all aged groups, even 65 years and older
Description: Multi-center, parallel-group, double-blind, placebo-controlled study was performed to compare the effect of Compound A on improving weekly number of spontaneous bowel movements among different aged patients with occasional constipation. The patients were received 48 μg (total daily dose) of Compound A (24 μg of Compound A b.i.d) for 4 weeks. The bowel movements in the patient were recorded during the treatment.

CCCCC(F)(F)C(=O)CCC1C(O)CC(=O)C1CCCCCCC(=O)O (stereo not drawn) [Compound A, 13,14-dihydro-15-keto-16,16-difluoro-PGE1]
Efficacy on severity of constipation, abdominal bloating and abdominal discomfort (FIGS. 1 to 6) [1]: effective | Efficacy in IBS patients (Tables 2 to 4) ([2]; 48 μg/day, 12 months treatment): effective | Abdominal bloating, Mean ± SD ([2]; Baseline): 2.23 ± 0.927 (183) | Abdominal bloating, Median ([2]; Baseline): 2.00 | Abdominal discomfort, Mean ± SD ([2]; Baseline): 1.95 ± 0.850 (183) | Abdominal discomfort, Median ([2]; Baseline): 2.00 | Severity of Constipation, Mean ± SD ([2]; Baseline): 2.95 ± 0.751 (183) | Severity of Constipation, Median ([2]; Baseline): 3.00 | Abdominal bloating, Change from Baseline, Mean ± SD ([2]; End of Treatment, 48 μg/day): −0.73 ± 1.075 (183) | Abdominal bloating, Change from Baseline, Median ([2]; End of Treatment, 48 μg/day): −1.00 | Abdominal discomfort, Change from Baseline, Mean ± SD ([2]; End of Treatment, 48 μg/day): −0.66 ± 1.112 (183) | Abdominal discomfort, Change from Baseline, Median ([2]; End of Treatment, 48 μg/day): −1.00 | Severity of Constipation, Change from Baseline, Mean ± SD ([2]; End of Treatment, 48 μg/day): −1.11 ± 1.148 (183) | Severity of Constipation, Change from Baseline, Median ([2]; End of Treatment, 48 μg/day): −1.00 | Abdominal bloating, Mean ± SD ([2]; End of Treatment, 48 μg/day): 1.50 ± 1.005 (183) | Abdominal bloating, Median ([2]; End of Treatment, 48 μg/day): 1.00 | Abdominal discomfort, Mean ± SD ([2]; End of Treatment, 48 μg/day): 1.28 ± 1.020 (183) | Abdominal discomfort, Median ([2]; End of Treatment, 48 μg/day): 1.00 | Severity of Constipation, Mean ± SD ([2]; End of Treatment, 48 μg/day): 1.84 ± 1.120 (183) | Severity of Constipation, Median ([2]; End of Treatment, 48 μg/day): 2.00 | Abdominal bloating, Change from Baseline, Mean ± SD ([2]; Follow-Up): −0.69 ± 1.109 (121) | Abdominal bloating, Change from Baseline, Median ([2]; Follow-Up): −1.00 | Abdominal discomfort, Change from Baseline, Mean ± SD ([2]; Follow-Up): −0.55 ± 1.080 (121) | Abdominal discomfort, Change from Baseline, Median ([2]; Follow-Up): −1.00 | Severity of Constipation, Change from Baseline, Mean ± SD ([2]; Follow-Up): −0.88 ± 1.122 (121) | Severity of Constipation, Change from Baseline, Median ([2]; Follow-Up): −1.00 | Abdominal bloating, Mean ± SD ([2]; Follow-Up): 1.55 ± 0.957 (121) | Abdominal bloating, Median ([2]; Follow-Up): 2.00 | Abdominal discomfort, Mean ± SD ([2]; Follow-Up): 1.40 ± 0.996 (121) | Abdominal discomfort, Median ([2]; Follow-Up): 1.00 | Severity of Constipation, Mean ± SD ([2]; Follow-Up): 2.07 ± 0.946 (121) | Severity of Constipation, Median ([2]; Follow-Up): 2.00 | Abdominal bloating, Change from Baseline, Mean ± SD ([2]; Week 12, 48 μg/day): −0.84 ± 1.045 (135) | Abdominal bloating, Change from Baseline, Median ([2]; Week 12, 48 μg/day): −1.00 | Abdominal discomfort, Change from Baseline, Mean ± SD ([2]; Week 12, 48 μg/day): −0.79 ± 0.993 (135) | Abdominal discomfort, Change from Baseline, Median ([2]; Week 12, 48 μg/day): −1.00 | Severity of Constipation, Change from Baseline, Mean ± SD ([2]; Week 12, 48 μg/day): −1.16 ± 1.099 (135) | Severity of Constipation, Change from Baseline, Median ([2]; Week 12, 48 μg/day): −1.00 | Abdominal bloating, Mean ± SD ([2]; Week 12, 48 μg/day): 1.43 ± 0.919 (135) | Abdominal bloating, Median ([2]; Week 12, 48 μg/day): 1.00 | Abdominal discomfort, Mean ± SD ([2]; Week 12, 48 μg/day): 1.16 ± 0.836 (135) | Abdominal discomfort, Median ([2]; Week 12, 48 μg/day): 1.00 | Severity of Constipation, Mean ± SD ([2]; Week 12, 48 μg/day): 1.76 ± 1.003 (135) | Severity of Constipation, Median ([2]; Week 12, 48 μg/day): 2.00 | Abdominal bloating, Change from Baseline, Mean ± SD ([2]; Week 18, 48 μg/day): −1.07 ± 1.068 (111) | Abdominal bloating, Change from Baseline, Median ([2]; Week 18, 48 μg/day): −1.00 | Abdominal discomfort, Change from Baseline, Mean ± SD ([2]; Week 18, 48 μg/day): −0.97 ± 1.031 (111) | Abdominal discomfort, Change from Baseline, Median ([2]; Week 18, 48 μg/day): −1.00 | Severity of Constipation, Change from Baseline, Mean ± SD ([2]; Week 18, 48 μg/day): −1.59 ± 1.148 (111) | Severity of Constipation, Change from Baseline, Median ([2]; Week 18, 48 μg/day): −2.00 | Abdominal bloating, Mean ± SD ([2]; Week 18, 48 μg/day): 1.19 ± 0.837 (111) | Abdominal bloating, Median ([2]; Week 18, 48 μg/day): 1.00 | Abdominal discomfort, Mean ± SD ([2]; Week 18, 48 μg/day): 0.98 ± 0.874 (111) | Abdominal discomfort, Median ([2]; Week 18, 48 μg/day): 1.00 | Severity of Constipation, Mean ± SD ([2]; Week 18, 48 μg/day): 1.33 ± 0.985 (111) | Severity of Constipation, Median ([2]; Week 18, 48 μg/day): 1.00 | Abdominal bloating, Change from Baseline, Mean ± SD ([2]; Week 24, 48 μg/day): −0.95 ± 1.102 (107) | Abdominal bloating, Change from Baseline, Median ([2]; Week 24, 48 μg/day): −1.00 | Abdominal discomfort, Change from Baseline, Mean ± SD ([2]; Week 24, 48 μg/day): −0.82 ± 1.035 (107) | Abdominal discomfort, Change from Baseline, Median ([2]; Week 24, 48 μg/day): −1.00 | Severity of Constipation, Change from Baseline, Mean ± SD ([2]; Week 24, 48 μg/day): −1.40 ± 1.036 (107) | Severity of Constipation, Change from Baseline, Median ([2]; Week 24, 48 μg/day): −1.00 | Abdominal bloating, Mean ± SD ([2]; Week 24, 48 μg/day): 1.26 ± 0.915 (107) | Abdominal bloating, Median ([2]; Week 24, 48 μg/day): 1.00 | Abdominal discomfort, Mean ± SD ([2]; Week 24, 48 μg/day): 1.09 ± 0.917 (107) | Abdominal discomfort, Median ([2]; Week 24, 48 μg/day): 1.00 | Severity of Constipation, Mean ± SD ([2]; Week 24, 48 μg/day): 1.50 ± 0.965 (107) | Severity of Constipation, Median ([2]; Week 24, 48 μg/day): 1.00 | Abdominal bloating, Change from Baseline, Mean ± SD ([2]; Week 36, 48 μg/day): −1.00 ± 1.134 (57) | Abdominal bloating, Change from Baseline, Median ([2]; Week 36, 48 μg/day): −1.00 | Abdominal discomfort, Change from Baseline, Mean ± SD ([2]; Week 36, 48 μg/day): −0.77 ± 0.926 (57) | Abdominal discomfort, Change from Baseline, Median ([2]; Week 36, 48 μg/day): −1.00 | Severity of Constipation, Change from Baseline, Mean ± SD ([2]; Week 36, 48 μg/day): −1.33 ± 1.123 (57) | Severity of Constipation, Change from Baseline, Median ([2]; Week 36, 48 μg/day): −1.00 | Abdominal bloating, Mean ± SD ([2]; Week 36, 48 μg/day): 1.05 ± 0.854 (57) | Abdominal bloating, Median ([2]; Week 36, 48 μg/day): 1.00 | Abdominal discomfort, Mean ± SD ([2]; Week 36, 48 μg/day): 0.93 ± 0.799 (57) | Abdominal discomfort, Median ([2]; Week 36, 48 μg/day): 1.00 | Severity of Constipation, Mean ± SD ([2]; Week 36, 48 μg/day): 1.39 ± 0.921 (57) | Severity of Constipation, Median ([2]; Week 36, 48 μg/day): 1.00 | Abdominal bloating, Change from Baseline, Mean ± SD ([2]; Week 48, 48 μg/day): −0.94 ± 0.802 (52) | Abdominal bloating, Change from Baseline, Median ([2]; Week 48, 48 μg/day): −1.00 | Abdominal discomfort, Change from Baseline, Mean ± SD ([2]; Week 48, 48 μg/day): −0.81 ± 0.908 (52) | Abdominal discomfort, Change from Baseline, Median ([2]; Week 48, 48 μg/day): −1.00 | Severity of Constipation, Change from Baseline, Mean ± SD ([2]; Week 48, 48 μg/day): −1.37 ± 1.095 (51) | Severity of Constipation, Change from Baseline, Median ([2]; Week 48, 48 μg/day): −1.00 | Abdominal bloating, Mean ± SD ([2]; Week 48, 48 μg/day): 1.12 ± 0.832 (52) | Abdominal bloating, Median ([2]; Week 48, 48 μg/day): 1.00 | Abdominal discomfort, Mean ± SD ([2]; Week 48, 48 μg/day): 0.87 ± 0.929 (52) | Abdominal discomfort, Median ([2]; Week 48, 48 μg/day): 1.00 | Severity of Constipation, Mean ± SD ([2]; Week 48, 48 μg/day): 1.37 ± 0.894 (51) | Severity of Constipation, Median ([2]; Week 48, 48 μg/day): 1.00 | Effect on weekly number of spontaneous bowel movements by age (FIG. 14) [3]: significantly effective
